pIC50: −log10 of the molar value.
What was measured:
[1] = target: T1, human TRPV1 receptor (hTRPV1) (Homo sapiens (Human), UniProt Q8NER1); test: Acid activation assay (pH 5.0, FLIPR intracellular Ca2+); type: cell-based; settings: 37.5 μM compound, percentage of the maximal pH 5.0-induced response remaining; for remaining activity at 37.5 µM: read-out: hTRPV1 H+ (max % remain)
Method: Dulbecco's modified Eagle's medium (DMEM) with 4.5 mg/mL D-glucose, fetal bovine serum, L-glutamine, and 2-morpholinoethanesulfonic acid (MES) were purchased from Sigma-Aldrich Co. (St. Louis, Mo.). Dulbecco's phosphate-buffered saline (DPBS) with Ca^2+, Mg^2+, and 1 mg/mL D-glucose (pH 7.4), Geneticin®, 0.25% trypsin-1 mM EDTA, and penicillin-streptomycin were purchased from Invitrogen Corp. (Carlsbad, Calif.). The FLIPR® Calcium 4 assay kit was purchased from Molecular Devices (Sunnyvale, Calif.).
(§1) The cDNAs for the human TRPV1 receptor (hTRPV1) were isolated by reverse transcriptase-polymerase chain reaction (RT-PCR) from human small intestine poly A+ RNA supplied by Clontech (Palo Alto, Calif.) using primers designed surrounding the initiation and termination codons identical to the published sequences (Hayes et al. Pain 2000, 88, 205-215). The resulting cDNA PCR products were subcloned into pCIneo mammalian expression vector (Promega) and fully sequenced using fluorescent dye-terminator reagents (Prism, Perkin-Elmer Applied Biosystems Division) and a Perkin-Elmer Applied Biosystems Model 373 DNA sequencer or Model 310 genetic analyzer. Expression plasmids encoding the hTRPV1 cDNA were transfected individually into 1321N1 human astrocytoma cells using Lipofectamine®. Forty-eight hours after transfection, the neomycin-resistant cells were selected with growth medium containing 800 μg/mL Geneticin (Gibco BRL). Surviving individual colonies were isolated and screened for TRPV1 receptor activity. Cells expressing recombinant homomeric TRPV1 receptors were maintained at 37° C. in DMEM containing 4 mM L-glutamine, 300 μg/mL G418 (Cal-biochem) and 10% fetal bovine serum under a humidified 5% CO2 atmosphere.
The functional activity of compounds at the TRPV1 receptor was determined by measurement of intracellular Ca^2+ levels ([Ca^2+]i) using the Fluorescence Imaging Plate Reader (FLIPR)^TETRA®. All compounds were tested over a 12-point one-half-log concentration range. Compound stocks, 10 mM, were prepared in DMSO, and diluted serially across a 384-well plate using a Bravo BenchCel workstation (Agilent Technologies, Santa Clara, Calif.).
On the day of the experiment growth medium was removed, and the no-wash FLIPR®Calcium-4 dye (λEX=470-495 nm, λEM=515-575 nm) was added to each well using the Multidrop® dispenser. Cells were incubated for 90-120 minutes in the dark at 25° C. Test compounds were dissolved in DMSO, and plates were prepared using an Agilent Bravo workstation (Agilent Technologies Inc., Santa Clara, Calif.). Compounds were added to the cells 3 minutes prior to the addition of a pH 5.0 solution. Reagents were delivered at a rate of 40 μL/sec, and the final assay volume was 80 μL. Acidic pH solutions were prepared by titration of DPBS/MES with 1 N HCl. The intensity of the fluorescence was captured and digitally transferred to an interfaced PC.

[2] = target: T1, human TRPV1 receptor (hTRPV1); test: Capsaicin activation assay (FLIPR intracellular Ca2+); type: cell-based; settings: inhibition of capsaicin-induced intracellular Ca2+ increase; compounds added 3 minutes prior to capsaicin; read-out: hTRPV1 cap. IC50
Method: Dulbecco's modified Eagle medium (D-MEM) (with 4.5 mg/mL glucose) and fetal bovine serum were obtained from Hyclone Laboratories, Inc. (Logan, Utah). Dulbecco's phosphate-buffered saline (D-PBS) (with 1 mg/mL glucose and 3.6 mg/l Na pyruvate, without phenol red), L-glutamine, hygromycin B, and Lipofectamine® were obtained from Life Technologies (Grand Island, N.Y.). G418 sulfate was obtained from Calbiochem-Novabiochem Corp. (San Diego, Calif.). Capsaicin (8-methyl-N-vanillyl-6-nonenamide) was obtained from Sigma-Aldrich, Co. (St. Louis, Mo.). Fluo-4 AM (N-[4-[6-[(acetyloxy)methoxy]-2,7-difluoro-3-oxo-3H-xanthen-9-yl]-2-[2-[2-[bis[2-[(acetyloxy)methoxy]-2-oxyethyl]amino]-5-methylphenoxy]ethoxy]phenyl]-N-[2-[(acetyloxy)methoxy]-2-oxyethyl]-glycine, (acetyloxy)methyl ester) was purchased from Molecular Probes (Eugene, Oreg.).
as §1, with “D-MEM” for “DMEM”
The functional activity of compounds at the TRPV1 receptor was determined by measurement of intracellular Ca^2+ levels ([Ca^2]i) using the Fluorescence Imaging Plate Reader (FLIPR)^TETRA®. All compounds were tested over a 12-point one-third-log concentration range. Compound stocks, 10 mM, were prepared in DMSO, and diluted serially across a 384-well plate using a Bravo BenchCel workstation (Agilent Technologies, Santa Clara, Calif.). A stock concentration of capsaicin (10 mM) was made in DMSO, and diluted in D-PBS to a final concentration of 200 nM (4×). On the day prior to the experiment, recombinant HEK293 cells that stably express either human or rat TRPV1 (hTRPV1-3) were removed from tissue culture flasks and plated in growth medium into black-walled clear-bottom 384-well Biocoat™ poly-D-lysine assay plates (BD Biosciences, Bedford, Mass.) using a Multidrop® dispenser (ThermoScientific, Waltham, Mass.). On the day of the experiment, growth medium was removed, and the no-wash FLIPR® Calcium-4 dye (λEX=470-495 nm, λEM=515-575 nm; Molecular Devices, Sunnyvale, Calif.) was added to each well using the Multidrop® dispenser. Cells were incubated for 90-120 minutes in the dark at room temperature. Test compounds were added to the cells 3 minutes prior to the addition of 200 nM capsaicin (4×), and the final assay volume was 80 μL. Fluorescence readings were made at 1 to 5 second intervals over the course of the experimental run. The peak increase in relative fluorescence units (minus baseline) was calculated, and expressed as a percentage of the 50 nM capsaicin (control) response. Curve-fits of the data were solved using a four-parameter logistic Hill equation in GraphPad Prism® (GraphPad Software, Inc., San Diego, Calif.), and IC50 values (concentration of the test compounds that inhibits 50% of the intracellular Ca^2+ concentration increase induced by capasin) were calculated.

T1 sequence (Q8NER1 whole entry): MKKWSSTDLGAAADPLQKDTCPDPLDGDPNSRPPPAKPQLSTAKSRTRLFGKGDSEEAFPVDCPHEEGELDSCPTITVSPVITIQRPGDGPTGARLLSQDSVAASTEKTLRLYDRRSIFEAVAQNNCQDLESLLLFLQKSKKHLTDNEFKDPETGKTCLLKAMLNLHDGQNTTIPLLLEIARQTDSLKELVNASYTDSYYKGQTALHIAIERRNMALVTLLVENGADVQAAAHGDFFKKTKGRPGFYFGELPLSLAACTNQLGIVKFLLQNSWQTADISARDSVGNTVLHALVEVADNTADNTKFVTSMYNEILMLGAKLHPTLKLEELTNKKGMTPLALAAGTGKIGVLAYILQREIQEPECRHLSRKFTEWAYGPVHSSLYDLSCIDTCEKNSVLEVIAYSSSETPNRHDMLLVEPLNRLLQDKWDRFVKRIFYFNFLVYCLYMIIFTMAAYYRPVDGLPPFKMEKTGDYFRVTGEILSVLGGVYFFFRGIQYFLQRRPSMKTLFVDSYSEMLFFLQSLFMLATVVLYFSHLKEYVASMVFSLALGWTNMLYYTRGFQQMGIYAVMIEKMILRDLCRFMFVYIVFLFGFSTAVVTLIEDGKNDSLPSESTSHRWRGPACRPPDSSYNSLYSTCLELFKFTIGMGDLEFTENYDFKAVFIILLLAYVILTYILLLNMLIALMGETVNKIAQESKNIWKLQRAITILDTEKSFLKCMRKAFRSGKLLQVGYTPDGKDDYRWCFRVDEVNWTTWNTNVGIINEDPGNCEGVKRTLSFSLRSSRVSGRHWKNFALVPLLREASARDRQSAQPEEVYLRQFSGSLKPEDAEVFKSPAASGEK

SMILES | remaining activity at 37.5 µM [1] [%] | pIC50 [2] | hTRPV1 H+ (max % remain) [1] [%]
CCC1(CC)C[C@@H](NC(=O)NCc2ccc(NS(C)(=O)=O)c(F)c2)c2ccc(Cl)c(Cl)c2O1 [Example 8, N-{4-[({[(4R)-7,8-dichloro-2,2-diethyl-3,4-dihydro-2H-chromen-4-yl]carbamoyl}amino)methyl]-2-fluorophenyl}methanesulfonamide] | 24 | 6.48 | –
CS(=O)(=O)Nc1ccc(CNC(=O)N[C@H]2CCOc3cc(OC(F)(F)F)ccc32)cc1F [Example 24, N-{2-fluoro-4-[({[(45)-7-(trifluoromethoxy)-3,4-dihydro-2H-chromen-4-yl]carbamoyl}amino)methyl]phenyl}methanesulfonamide] | – | < 4.43 | 77
CS(=O)(=O)Nc1ccc(CNC(=O)N[C@@H]2CC(CF)(CF)Oc3c(F)cc(F)cc32)cc1F [Example 16, N-{4-[({[(4R)-6,8-difluoro-2,2-bis(fluoromethyl)-3,4-dihydro-2H-chromen-4-yl]carbamoyl}amino)methyl]-2-fluorophenyl}methanesulfonamide] | 79 | 4.64 | –
CS(=O)(=O)Nc1ccc(CNC(=O)N[C@@H]2CCOc3cc(C(F)(F)F)ccc32)cc1F [Example 32, N-{2-fluoro-4-[({[(4R)-7-(trifluoromethyl)-3,4-dihydro-2H-chromen-4-yl]carbamoyl}amino)methyl]phenyl}methanesulfonamide] | 88 | 6.04 | –
CC(C)(C)c1ccc2c(c1)CC[C@H]2NC(=O)NCc1ccc(NS(C)(=O)=O)c(F)c1 [Example 1, N-{4-[({[(1R)-5-tert-butyl-2,3-dihydro-1H-inden-1-yl]carbamoyl}amino)methyl]-2-fluorophenyl}methanesulfonamide] | 22 | 6.98 | –
CS(=O)(=O)Nc1ccc(CNC(=O)N[C@@H]2CCOc3ccccc32)cc1F [Example 12, N-[4-({[(4R)-3,4-dihydro-2H-chromen-4-ylcarbamoyl]amino}methyl)-2-fluorophenyl]methanesulfonamide] | 87 | < 4.43 | –
CS(=O)(=O)Nc1ccc(CNC(=O)N[C@@H]2CCc3cc(C(F)(F)F)ccc32)cc1F [Example 5, N-{2-fluoro-4-[({[(1R)-5-(trifluoromethyl)-2,3-dihydro-1H-inden-1-yl]carbamoyl}amino)methyl]phenyl}methanesulfonamide] | 88 | 6.49 | –
CS(=O)(=O)Nc1ccc(CNC(=O)N[C@@H]2CC(CF)(CF)Oc3c(F)cccc32)cc1F [Example 28, N-{2-fluoro-4-[({[(4R)-8-fluoro-2,2-bis(fluoromethyl)-3,4-dihydro-2H-chromen-4-yl]carbamoyl}amino)methyl]phenyl}methanesulfonamide] | 68 | 4.53 | –
CCC1(CC)C[C@@H](NC(=O)NCc2ccc(NS(C)(=O)=O)c(F)c2)c2ccc(Cl)cc2O1 [Example 14, N-{4-[({[(4R)-7-chloro-2,2-diethyl-3,4-dihydro-2H-chromen-4-yl]carbamoyl}amino)methyl]-2-fluorophenyl}methanesulfonamide] | 27 | 6.68 | –
CS(=O)(=O)Nc1ccc(CNC(=O)N[C@@H]2CC(CF)(CF)Oc3c2ccc(Cl)c3F)cc1F [Example 20, N-{4-[({[(4R)-7-chloro-8-fluoro-2,2-bis(fluoromethyl)-3,4-dihydro-2H-chromen-4-yl]carbamoyl}amino)methyl]-2-fluorophenyl}methanesulfonamide] | 60 | 6.10 | –
CC1(C)C[C@@H](NC(=O)NCc2ccc(NS(C)(=O)=O)c(F)c2)c2ccc(F)cc2O1 [Example 7, N-{2-fluoro-4-[({[(4R)-7-fluoro-2,2-dimethyl-3,4-dihydro-2H-chromen-4-yl]carbamoyl}amino)methyl]phenyl}methanesulfonamide] | 18 | 6.13 | –

Source: patent US8796328B2, “TRPV1 antagonists” (AbbVie Inc., priority 2012, dated 2014)
